For 20 compounds, EC50 results are on record in patent publication US20200071310A1, “N-ARYL PYRAZOLES AS NRF2 REGULATORS” (GLAXOSMITHKLINE INTELLECTUAL PROPERTY DEVELOPMENT LIMITED, priority 2016, published 2020).

This assay deals with T1, full length Keap1 protein / full length NRF2 protein (Homo sapiens, UniProt Q14145).
T1 construct: full length NRF2 protein and full length Keap1 protein (Keap1 exists a dimer) are used; His
Nature of the assay: NRF2-Keap1 TR-FRET Low Protein Assay. Format: binding. The text has this:
In the NRF2-Keap1 TR-FRET (time-resolved fluorescence resonance energy transfer) low protein assay, full length NRF2 protein and full length Keap1 protein (Keap1 exists a dimer) are used. The assay detects a compound's ability to displace the binding of Keap1 FlagHis with biotinylated Avi-NRF2 protein. Biotin-NRF2 binds to streptavidin-europium (a component of the detection mix) and Keap1 FlagHis is recognized by anti-Flag APC (allophycocyanin) antibody (also a component of the detection mix). If binding occurs between the two proteins, there will be an energy transfer from the Eu+3 (donor) at 615 nm to the APC (acceptor) at 665 nm. A potential NRF2 inhibitor will cause a reduction in the TR-FRET signal by interfering with the binding of Keap1 to NRF2.
Ten nanoliters of 100× compound dose response curves (serial 3-fold dilutions) in DMSO were stamped using an Echo liquid handling system (Labcyte) into 384-well, low volume, black assay plates (Greiner, #784076), with DMSO in columns 6 and 18. An additional 90 nl DMSO was added to each well, to bring the total volume to 100 nl per well. The top concentration of compound was located in columns 1 and 13, with the serial dilutions going across the row. All reagents were diluted in assay buffer (50 mM Tris, pH 8.0, 5 mM MgCl2, 100 mM NaCl, 0.005% BSA, 1 mM DTT, and 2 mM CHAPS. The BSA, DTT, and CHAPS were added to the assay buffer on the day of assay. Using a Multidrop Combi (Thermo Electron Corporation) equipped with a metal tip dispenser, 5 ul of 1.25 nM Keap1 FlagHis protein was added to all wells of the compound plate, with the exception of the wells in column 18. Wells in column 18 received 5 ul of assay buffer instead. Plates were centrifuged at 500 rpm for 1 minute, covered with a plate lid, and incubated at 37° C. for 2.25 hours. Plates were then removed from the incubator and allowed to cool to RT for 15 minutes. Five microliters of 2.5 nM biotin-NRF2 protein was then added to all wells of the plates and the plates were spun at 500 rpm for 1 minute, followed by incubating at 4° C. for 1.25 hours. The plates were then allowed to warm to RT for 15 minutes, followed by the addition of 10 ul of detection mix (1 nM Streptavidin Eu+W1024 and 5 ug/ml mouse anti-DYKDDDDK IgG conjugated to SureLight APC antibody; both from Columbia Biosciences) to all wells. Plates were spun at 500 rpm for 1 minute, incubated for 1 hour at RT, and read on an Envision plate reader using a 320 nm excitation filter and 615 nm and 665 nm emission filters. Compound response (% inhibition) and potency (pIC50) were calculated based on the ratio of the two emissions (665 nm/615 nm) and then the transformed data was normalized against controls in the assay (control 1=1% DMSO in the presence of NRF2 and Keap1 protein and control 2=1% DMSO in the presence of only the NRF2 protein). Data analysis was handled using the software package Abase XE (Surrey, United Kingdom). The % inhibition values were calculated from the ratio (transformed) data by the equation:
100−(100*(compound response−average control 2)/(average control 1−average control2)).
For calculation of pIC50s, Abase XE used a four parameter equation.
IC50s<10 nM (+++++), IC50s 10-100 nM (++++), IC50s 100 nM-1 uM (+++), IC50s 1-10 uM (++). and IC50s 10 uM-100 uM (+), IC50s>100 uM (−), or were not determined (ND).
For orientation: In TR-FRET formats the signal depends on donor and acceptor labels being close together.

pEC50: −log10 of the molar value. Structures can show the parent of a compound that is named as a salt. A value given as a limit tells only on which side of the number the result lay.

T1 sequence (Q14145 whole entry): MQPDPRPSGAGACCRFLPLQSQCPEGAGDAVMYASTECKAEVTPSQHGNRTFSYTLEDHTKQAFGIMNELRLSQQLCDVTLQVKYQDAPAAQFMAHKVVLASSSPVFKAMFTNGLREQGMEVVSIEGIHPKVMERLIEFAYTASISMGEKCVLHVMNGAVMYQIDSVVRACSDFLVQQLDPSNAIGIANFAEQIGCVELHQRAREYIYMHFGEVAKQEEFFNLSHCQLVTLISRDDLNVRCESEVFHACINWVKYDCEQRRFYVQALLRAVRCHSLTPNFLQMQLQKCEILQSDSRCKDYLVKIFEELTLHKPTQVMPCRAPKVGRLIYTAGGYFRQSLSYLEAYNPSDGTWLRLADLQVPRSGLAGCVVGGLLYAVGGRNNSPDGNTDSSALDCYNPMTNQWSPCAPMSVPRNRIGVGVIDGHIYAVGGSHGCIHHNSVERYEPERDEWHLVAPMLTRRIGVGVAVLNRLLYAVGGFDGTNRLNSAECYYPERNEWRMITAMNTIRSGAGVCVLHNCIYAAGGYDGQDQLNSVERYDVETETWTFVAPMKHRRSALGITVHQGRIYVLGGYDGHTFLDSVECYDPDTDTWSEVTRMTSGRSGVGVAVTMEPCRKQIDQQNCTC

Compound `C[C@H]1Cc2ccccc2S(=O)(=O)N(Cc2cccc(-n3ncc(C(=O)O)c3[C@@H]3C[C@H]3c3cn(C)nn3)c2)C1` [Example 15, 1-(3-(((S)-4-methyl-1,1-dioxido-4,5-dihydrobenzo[f][1,2]thiazepin-2(3H)-yl)methyl)phenyl)-5-((trans)-2-(1-methyl-1H-1,2,3-triazol-4-yl)cyclopropyl)-1H-pyrazole-4-carboxylic acid] had a pEC50 of 6.00 to 7.00.

Consider `CCOc1ccc(Br)cc1CN(C)Cc1cccc(-n2ncc(C(=O)O)c2[C@@H]2C[C@H]2c2cn(C)nn2)c1` (racemic) [Example 54, 1-(3-(((5-bromo-2-ethoxybenzyl)(methyl)amino)methyl)phenyl)-5-((trans)-2-(1-methyl-1H-1,2,3-triazol-4-yl)cyclopropyl)-1H-pyrazole-4-carboxylic acid trifluoroacetate], for which the negative-log EC50 (pEC50) was 5.00 to 6.00.

Turning to `CC[C@H]1Cc2ccc(Br)cc2S(=O)(=O)N(Cc2cccc(-n3ncc(C(=O)O)c3[C@@H]3C[C@H]3c3cn(C)nn3)c2)C1` [Example 22, 1-(3-(((S)-8-bromo-4-ethyl-1,1-dioxido-4,5-dihydrobenzo[f][1,2]thiazepin-2(3H)-yl)methyl)phenyl)-5-((1R,2R)-2-(1-methyl-1H-1,2,3-triazol-4-yl)cyclopropyl)-1H-pyrazole-4-carboxylic acid], the pEC50 was over 8.00.

On to `Cn1cc([C@@H]2C[C@H]2c2c(C(=O)O)cnn2-c2cccc(CN3CC(C)(C)Oc4ccc(F)cc4S3(=O)=O)c2)nn1` (racemic) [Example 5], for which the negative logarithm of the EC50 (pEC50) is 7.00 to 8.00.

Turning to `Cn1cc([C@@H]2C[C@H]2c2c(C(=O)O)cnn2-c2cccc(CN3Cc4ccccc4OC(C)(C)C3)c2)nn1` (racemic) [Example 8], the pEC50 is 6.00 to 7.00.

Turning to `C[C@H]1Cc2ccc(C(F)(F)F)cc2S(=O)(=O)N([C@H]2CCc3c2cccc3-n2ncc(C(=O)O)c2[C@@H]2C[C@H]2c2cn(C)nn2)C1` [Example 26a, 1-((S)-1-((S)-4-Methyl-1,1-dioxido-8-(trifluoromethyl)-4,5-dihydrobenzo[f][1,2]thiazepin-2(3H)-yl)-2,3-dihydro-1H-inden-4-yl)-5-((1R,2R)-2-(1-methyl-1H-1,2,3-triazol-4-yl)cyclopropyl)-1H-pyrazole-4-carboxylic acid], the pEC50 is 6.00 to 7.00.

Compound `C[C@H]1Cc2cc(C(F)(F)F)ccc2S(=O)(=O)N(Cc2cccc(-n3ncc(C(=O)O)c3[C@@H]3C[C@H]3c3cnn(C)c3)c2)C1` [Example 30, 1-(3-(((S)-4-Methyl-1,1-dioxido-7-(trifluoromethyl)-4,5-dihydrobenzo[f][1,2]thiazepin-2(3H)-yl)methyl)phenyl)-5-(trans-2-(1-methyl-1H-pyrazol-4-yl)cyclopropyl)-1H-pyrazole-4-carboxylic acid] showed a negative-log EC50 (pEC50) of 6.00 to 7.00.

`C[C@H]1Cc2ccc(Br)cc2S(=O)(=O)N(Cc2cccc(-n3ncc(C(=O)O)c3[C@@H]3C[C@H]3c3cn(C)nn3)c2)C1` (racemic) [Example 17, 1-(3-((8-bromo-4-methyl-1,1-dioxido-4,5-dihydrobenzo[f][1,2]thiazepin-2(3H)-yl)methyl)phenyl)-5-((trans)-2-(1-methyl-1H-1,2,3-triazol-4-yl)cyclopropyl)-1H-pyrazole-4-carboxylic acid] had a pEC50 of 7.00 to 8.00.

`CCCC[C@H]1Cc2ccc(C(F)(F)F)cc2S(=O)(=O)N(Cc2cccc(-n3ncc(C(=O)O)c3[C@@H]3C[C@H]3c3cn(C)nn3)c2)C1` [Example 21, 1-(3-(((S)-4-butyl-1,1-dioxido-8-(trifluoromethyl)-4,5-dihydrobenzo[f][1,2]thiazepin-2(3H)-yl)methyl)phenyl)-5-((1R,2R)-2-(1-methyl-1H-1,2,3-triazol-4-yl)cyclopropyl)-1H-pyrazole-4-carboxylic acid] had a pEC50 of over 8.00.

Take `CC[C@H]1Cc2ccc(C(F)(F)F)cc2S(=O)(=O)N(Cc2cccc(-n3ncc(C(=O)O)c3[C@@H]3C[C@H]3c3cn(C)nn3)c2)C1` [Example 20, 1-(3-(((S)-4-ethyl-1,1-dioxido-8-(trifluoromethyl)-4,5-dihydrobenzo[f][1,2]thiazepin-2(3H)-yl)methyl)phenyl)-5-((1R,2R)-2-(1-methyl-1H-1,2,3-triazol-4-yl)cyclopropyl)-1H-pyrazole-4-carboxylic acid]: the negative logarithm of the EC50 (pEC50) is over 8.00.

With `CCOc1ccccc1S(=O)(=O)N(C)Cc1cccc(-n2ncc(C(=O)O)c2[C@@H]2C[C@H]2c2cn(C)nn2)c1` (racemic) [Example 45, 1-(3-((2-ethoxy-N-methylphenylsulfonamido)methyl)phenyl)-5-((trans)-2-(1-methyl-1H-1,2,3-triazol-4-yl)cyclopropyl)-1H-pyrazole-4-carboxylic acid], the pEC50 was 5.00 to 6.00.

As for `Cc1ccccc1S(=O)(=O)N(C)Cc1cccc(-n2ncc(C(=O)O)c2[C@@H]2C[C@H]2c2cn(C)nn2)c1` (racemic) [Example 42, 1-(3-((N,2-dimethylphenylsulfonamido)methyl)phenyl)-5-((trans)-2-(1-methyl-1H-1,2,3-triazol-4-yl)cyclopropyl)-1H-pyrazole-4-carboxylic acid], the negative logarithm of the EC50 (pEC50) is 5.00 to 6.00.

Compound `CN(Cc1cccc(-n2ncc(C(=O)O)c2[C@@H]2C[C@H]2c2cn(C)nn2)c1)S(=O)(=O)c1cccc2cccnc12` (racemic) [Example 51, 5-((trans)-2-(1-methyl-1H-1,2,3-triazol-4-yl)cyclopropyl)-1-(3-((N-methylquinoline-8-sulfonamido)methyl)phenyl)-1H-pyrazole-4-carboxylic acid] showed a pEC50 of 5.00 to 6.00.

`CCCCCCN(Cc1cccc(-n2ncc(C(=O)O)c2[C@@H]2C[C@H]2c2cn(C)nn2)c1)S(=O)(=O)c1ccc(Oc2ccccc2)cc1` (relative stereo) [Example 36, 1-(3-((N-hexyl-4-phenoxyphenylsulfonamido)methyl)phenyl)-5-((trans)-2-(1-methyl-1H-1,2,3-triazol-4-yl)-cyclopropyl)-1H-pyrazole-4-carboxylic acid]: the pEC50 was 6.00 to 7.00.

`CC[C@@H]1CN(Cc2cccc(-n3ncc(C(=O)O)c3[C@@H]3C[C@H]3c3cn(C)nn3)c2)S(=O)(=O)c2ccccc2O1` [Example 3] gave a pEC50 of 7.00 to 8.00.

On to `CN(Cc1cccc(-n2ncc(C(=O)O)c2[C@@H]2C[C@H]2c2cn(C)nn2)c1)S(=O)(=O)c1ccccc1` (racemic) [Example 48, 5-((trans)-2-(1-methyl-1H-1,2,3-triazol-4-yl)cyclopropyl)-1-(3-((N-methylphenylsulfonamido)methyl)phenyl)-1H-pyrazole-4-carboxylic acid], for which the pEC50 is 5.00 to 6.00.

Compound `CC[C@@H]1Cc2ccccc2CN(Cc2cccc(-n3ncc(C(=O)O)c3[C@@H]3C[C@H]3c3cn(C)nn3)c2)C1` [Example 10] gave a negative logarithm of the EC50 (pEC50) of 6.00 to 7.00.

The compound `CCCCCCN(Cc1cccc(-n2ncc(C(=O)O)c2[C@@H]2C[C@H]2c2cn(C)nn2)c1)S(=O)(=O)c1ccccc1C` (racemic) [Example 37, 1-(3-((N-hexyl-2-methylphenylsulfonamido)methyl)phenyl)-5-((trans)-2-(1-methyl-1H-1,2,3-triazol-4-yl)cyclo-propyl)-1H-pyrazole-4-carboxylic acid] showed a pEC50 of 6.00 to 7.00.

The compound `COc1ccc(Br)cc1S(=O)(=O)N(C)Cc1cccc(-n2ncc(C(=O)O)c2[C@@H]2C[C@H]2c2cn(C)nn2)c1` (racemic) [Example 43, 1-(3-((5-bromo-2-methoxy-N-methylphenylsulfonamido)methyl)phenyl)-5-((trans)-2-(1-methyl-1H-1,2,3-triazol-4-yl)cyclopropyl)-1H-pyrazole-4-carboxylic acid] gave a pEC50 of 5.00 to 6.00.

For the compound `COc1ccccc1S(=O)(=O)N(C)Cc1cccc(-n2ncc(C(=O)O)c2[C@@H]2C[C@H]2c2cn(C)nn2)c1` (racemic) [Example 47, 1-(3-((2-methoxy-N-methylphenylsulfonamido)methyl)phenyl)-5-((trans)-2-(1-methyl-1H-1,2,3-triazol-4-yl)cyclopropyl)-1H-pyrazole-4-carboxylic acid], the negative logarithm of the EC50 (pEC50) was 5.00 to 6.00.

In general, pEC50 refers to −log10 of the EC50, conventionally taken in molar units. Low values mean a large EC50, high ones a small EC50.
